According to US20240317777A1, “NOVEL MACROCYCLIC AMINOPYRAZOLE COMPOUNDS AS CDK2 INHIBITORS” (Accutar Biotechnology Inc., priority 2023, published 2024):
Read-outs that look alike come from different tables or passages of the source.

Columns and labels:
CCNE1-normal SKOV3 cells = test: Cell growth inhibition of CCNE1-normal SKOV3 cells (CellTiter-Glo); type: cell-based; details: Homo sapiens, SK-OV-3, 144 h, 6 days
In short: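 Growth was measured by CellTiter-Glo luminescence after 6 days' compound exposure at 37 °C. Cells were plated one day before dosing at 1000 per well in medium with 10% FBS, and compounds were diluted from DMSO stocks.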

[1] = system: Phospho-Rb (Ser807/811) in OVCAR3 cells; test: Phospho-Rb expression inhibition in OVCAR3 cells quantified by In Cell Western; type: cell-based; details: Homo sapiens, OVCAR-3, 24 hours, read-out: OVCAR-3 pRb IC50
In short: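 In-cell western: after 24 h compound exposure at 37° C, fixed OVCAR3 cells co-stained for pRb Ser807/811 (800 nm channel) and total Rb (680 nm channel), imaged by LI-COR Odyssey.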

CDK9-CYCLIN T1 = CDK9-CYCLIN T1 (Homo sapiens, UniProt P50750); test: CDK protein kinase inhibition by ADP-Glo assay, CDK9-CYCLIN T1; type: biochemical; details: for IC50: ADP-Glo, 1000 μM ATP, read-out: CDK9-CYCLINT1, IC50
In short: (§1)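 Human CDK/cyclin complexes with peptide substrate, 1000 μM ATP, 5 mM MgCl2 in 100 mM HEPES pH 7.5, 0.1% BSA, 0.01% Triton X-100, 1 mM DTT, 1% DMSO, incubated at 22° C. ADP formed was detected by ADP-Glo luminescence after quench.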

CDK2-CYCLIN E1 = CDK2-CYCLIN E1 (Homo sapiens, UniProt P24941); test: CDK protein kinase inhibition by ADP-Glo assay, CDK2-CYCLIN E1; type: biochemical; details: ADP-Glo, 1000 μM ATP, read-out: CDK2-CYCLINE, IC50
In short: as §1

CDK6-CYCLIN D3 = CDK6-CYCLIN D3 (Homo sapiens, UniProt Q00534); test: CDK protein kinase inhibition by ADP-Glo assay, CDK6-CYCLIN D3; type: biochemical; details: for IC50: ADP-Glo, 1000 μM ATP, read-out: CDK6-CYCLIND3, IC50
In short: as §1

CDK1-CYCLIN B = CDK1-CYCLIN B (Homo sapiens, UniProt P06493); test: CDK protein kinase inhibition by ADP-Glo assay, CDK1-CYCLIN B; type: biochemical; details: for IC50: ADP-Glo, 1000 μM ATP, read-out: CDK1-CYCLINB, IC50
In short: as §1

[2] = system: CCNE1-amplified OVCAR3 cells; test: Cell growth inhibition of CCNE1-amplified OVCAR3 cells (CellTiter-Glo); type: cell-based; details: Homo sapiens, OVCAR-3, 144 h, 6 days
In short: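 Growth read-out was CellTiter-Glo luminescence, taken after 10 min at room temperature at the end of a 6-day compound exposure at 37 °C. Compounds were diluted from DMSO stocks across various concentrations.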

CDK4-CYCLIN D1 = CDK4-CYCLIN D1 (Homo sapiens, UniProt P11802); test: CDK protein kinase inhibition by ADP-Glo assay, CDK4-CYCLIN D1; type: biochemical; details: for IC50: ADP-Glo, 1000 μM ATP, read-out: CDK4-CYCLIND1, IC50
In short: as §1

CDK6-CYCLIN D3, sequence (Q00534 whole entry): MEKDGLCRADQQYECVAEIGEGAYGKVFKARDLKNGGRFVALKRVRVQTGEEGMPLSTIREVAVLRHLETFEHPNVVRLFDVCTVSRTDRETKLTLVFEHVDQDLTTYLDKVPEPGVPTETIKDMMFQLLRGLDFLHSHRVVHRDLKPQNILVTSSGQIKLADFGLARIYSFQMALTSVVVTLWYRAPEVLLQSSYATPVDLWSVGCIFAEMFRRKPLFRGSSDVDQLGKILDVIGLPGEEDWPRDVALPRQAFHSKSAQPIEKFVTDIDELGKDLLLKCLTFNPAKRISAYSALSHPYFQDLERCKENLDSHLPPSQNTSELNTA
CDK6-CYCLIN D3, sequence (P30281 whole entry partner): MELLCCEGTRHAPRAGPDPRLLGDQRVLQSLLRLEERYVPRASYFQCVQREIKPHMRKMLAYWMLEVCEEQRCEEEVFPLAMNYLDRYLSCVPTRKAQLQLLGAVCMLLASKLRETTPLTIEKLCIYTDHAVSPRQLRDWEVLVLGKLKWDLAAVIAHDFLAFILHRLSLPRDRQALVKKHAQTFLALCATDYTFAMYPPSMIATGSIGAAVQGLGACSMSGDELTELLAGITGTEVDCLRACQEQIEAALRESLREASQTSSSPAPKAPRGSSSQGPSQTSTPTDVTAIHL
CDK9-CYCLIN T1, sequence (P50750 whole entry): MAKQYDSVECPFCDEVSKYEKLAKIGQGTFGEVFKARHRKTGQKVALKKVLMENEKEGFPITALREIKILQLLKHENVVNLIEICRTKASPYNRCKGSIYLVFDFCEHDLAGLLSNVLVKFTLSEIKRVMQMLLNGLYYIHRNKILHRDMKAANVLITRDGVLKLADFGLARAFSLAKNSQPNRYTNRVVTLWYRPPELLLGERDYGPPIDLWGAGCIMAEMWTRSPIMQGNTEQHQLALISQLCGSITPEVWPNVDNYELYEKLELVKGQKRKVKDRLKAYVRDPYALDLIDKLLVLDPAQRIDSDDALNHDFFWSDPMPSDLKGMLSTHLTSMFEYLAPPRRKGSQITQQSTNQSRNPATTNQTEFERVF
CDK9-CYCLIN T1, sequence (O60563 whole entry partner): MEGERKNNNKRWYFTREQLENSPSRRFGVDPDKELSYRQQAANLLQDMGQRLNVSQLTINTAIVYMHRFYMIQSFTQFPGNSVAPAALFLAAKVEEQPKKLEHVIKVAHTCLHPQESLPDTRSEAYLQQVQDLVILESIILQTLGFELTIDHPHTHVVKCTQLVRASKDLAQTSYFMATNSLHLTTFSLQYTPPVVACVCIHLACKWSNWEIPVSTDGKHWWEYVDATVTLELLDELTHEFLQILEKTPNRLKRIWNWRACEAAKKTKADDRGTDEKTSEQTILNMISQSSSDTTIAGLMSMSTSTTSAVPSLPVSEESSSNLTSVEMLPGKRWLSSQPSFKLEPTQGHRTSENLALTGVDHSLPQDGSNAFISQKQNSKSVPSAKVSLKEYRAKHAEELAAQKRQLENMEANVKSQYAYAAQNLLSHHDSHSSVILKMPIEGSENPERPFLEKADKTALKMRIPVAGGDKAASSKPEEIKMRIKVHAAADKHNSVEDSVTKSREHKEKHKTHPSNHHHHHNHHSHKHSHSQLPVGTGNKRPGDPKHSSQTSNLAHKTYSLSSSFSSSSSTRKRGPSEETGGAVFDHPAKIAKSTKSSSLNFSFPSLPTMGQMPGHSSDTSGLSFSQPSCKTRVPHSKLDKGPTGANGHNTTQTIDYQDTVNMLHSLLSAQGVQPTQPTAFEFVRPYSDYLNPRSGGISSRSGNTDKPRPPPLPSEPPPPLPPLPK
CDK1-CYCLIN B, sequence (P06493 whole entry): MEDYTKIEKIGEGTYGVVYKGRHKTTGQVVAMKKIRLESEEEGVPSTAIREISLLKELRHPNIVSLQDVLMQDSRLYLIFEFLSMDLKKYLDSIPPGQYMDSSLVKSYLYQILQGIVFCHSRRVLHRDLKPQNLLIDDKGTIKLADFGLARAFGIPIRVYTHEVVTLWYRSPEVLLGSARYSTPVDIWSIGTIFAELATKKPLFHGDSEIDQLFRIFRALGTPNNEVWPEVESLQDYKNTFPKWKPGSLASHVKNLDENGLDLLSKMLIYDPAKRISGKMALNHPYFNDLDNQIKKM
CDK1-CYCLIN B, sequence (P14635 whole entry partner): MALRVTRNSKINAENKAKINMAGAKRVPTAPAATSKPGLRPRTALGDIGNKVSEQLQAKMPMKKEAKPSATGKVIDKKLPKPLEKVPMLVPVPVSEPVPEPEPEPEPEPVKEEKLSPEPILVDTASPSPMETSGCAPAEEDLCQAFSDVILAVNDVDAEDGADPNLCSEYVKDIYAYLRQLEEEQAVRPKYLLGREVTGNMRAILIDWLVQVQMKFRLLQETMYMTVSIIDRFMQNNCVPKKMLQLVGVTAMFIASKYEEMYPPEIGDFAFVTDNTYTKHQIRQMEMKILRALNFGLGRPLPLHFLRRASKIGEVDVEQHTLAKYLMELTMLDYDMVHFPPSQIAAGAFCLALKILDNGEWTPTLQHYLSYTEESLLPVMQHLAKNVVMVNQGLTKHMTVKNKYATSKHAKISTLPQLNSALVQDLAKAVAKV
CDK4-CYCLIN D1, sequence (P11802 whole entry): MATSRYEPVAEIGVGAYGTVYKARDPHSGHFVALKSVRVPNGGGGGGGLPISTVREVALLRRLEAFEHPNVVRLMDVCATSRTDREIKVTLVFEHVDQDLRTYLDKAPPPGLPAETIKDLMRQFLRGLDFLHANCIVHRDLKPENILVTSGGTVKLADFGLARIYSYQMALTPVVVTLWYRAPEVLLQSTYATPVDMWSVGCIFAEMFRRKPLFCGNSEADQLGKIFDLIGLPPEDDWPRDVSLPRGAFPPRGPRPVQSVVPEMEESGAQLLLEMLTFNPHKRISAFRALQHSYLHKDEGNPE
CDK4-CYCLIN D1, sequence (P24385 whole entry partner): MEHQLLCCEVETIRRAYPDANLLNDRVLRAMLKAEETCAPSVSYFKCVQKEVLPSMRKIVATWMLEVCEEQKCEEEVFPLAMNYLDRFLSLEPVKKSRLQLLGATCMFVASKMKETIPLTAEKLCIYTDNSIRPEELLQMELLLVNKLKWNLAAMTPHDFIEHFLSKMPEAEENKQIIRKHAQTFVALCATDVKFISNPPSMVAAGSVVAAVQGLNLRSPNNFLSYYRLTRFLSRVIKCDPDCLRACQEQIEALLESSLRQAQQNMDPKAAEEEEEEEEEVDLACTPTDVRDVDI

O=C1NCCCCC(F)(F)c2cc(ccn2)Nc2cc([nH]n2)[C@H]2CC[C@H](C2)O1 [Compound 64, (1^1S,1^3R,Z)-5,5-difluoro-2^1H-12-oxa-3,10-diaza-4(4,2)-pyridina-2(3,5)-pyrazola-1(1,3)-cyclopentanacyclododecaphan-11-one]
IC50 (CCNE1-normal SKOV3 cells): 50 to 250 nM | IC50 [1]: ≤ 2 nM | IC50 (CDK9-CYCLIN T1; Table 19): 10 to 50 nM | CDK2 Fold selectivity, CDK9 (CDK9-CYCLIN T1; CDK2 versus CDK9, Table 20): E (E, <20) | IC50 (CDK2-CYCLIN E1; Table 19): ≤ 10 nM | IC50 (CDK6-CYCLIN D3; Table 19): 10 to 50 nM | CDK2 Fold selectivity, CDK6 (CDK6-CYCLIN D3; CDK2 versus CDK6, Table 20): D (D, >20 and ≤50) | IC50 (CDK1-CYCLIN B; Table 19): ≤ 10 nM | CDK2 Fold selectivity, CDK1 (CDK1-CYCLIN B; CDK2 versus CDK1, Table 20): E (E, <20) | IC50 [2]: 2 to 10 nM | IC50 (CDK4-CYCLIN D1; Table 19): 10 to 50 nM | CDK2 Fold selectivity, CDK4 (CDK4-CYCLIN D1; CDK2 versus CDK4, Table 20): D (D, >20 and ≤50)

O=C1NC23CC(CCCc4cc(ccn4)Nc4cc(n[nH]4)[C@H]4CC[C@H](C4)O1)(C2)C3 [Compound 96, (1^1S,1^3R,Z)-2^1H-11-oxa-3,9-diaza-4(4,2)-pyridina-2(3,5)-pyrazola-8(1,3)-bicyclo[1.1.1]pentana-1(1,3)-cyclopentanacycloundecaphan-10-one]
IC50 (CCNE1-normal SKOV3 cells): 50 to 250 nM | IC50 [1]: ≤ 2 nM | IC50 (CDK9-CYCLIN T1; Table 13): ≤ 10 nM | CDK2 Fold selectivity, CDK9 (CDK9-CYCLIN T1; CDK2 versus CDK9, Table 14): E (E, <20) | IC50 (CDK2-CYCLIN E1; Table 13): ≤ 10 nM | IC50 (CDK6-CYCLIN D3; Table 13): 10 to 50 nM | CDK2 Fold selectivity, CDK6 (CDK6-CYCLIN D3; CDK2 versus CDK6, Table 14): E (E, <20) | IC50 (CDK1-CYCLIN B; Table 13): ≤ 10 nM | CDK2 Fold selectivity, CDK1 (CDK1-CYCLIN B; CDK2 versus CDK1, Table 14): E (E, <20) | IC50 [2]: 2 to 10 nM | IC50 (CDK4-CYCLIN D1; Table 13): 50 to 100 nM | CDK2 Fold selectivity, CDK4 (CDK4-CYCLIN D1; CDK2 versus CDK4, Table 14): D (D, >20 and ≤50)

C[C@@H]1CC23CC(C2)(C3)NC(=O)O[C@@H]2CC[C@@H](C2)c2cc([nH]n2)Nc2ccnc(c2)O1 [Compound 100, (1^1S,1^3R,6R,Z)-6-methyl-2^1H-5,11-dioxa-3,9-diaza-4(4,2)-pyridina-2(3,5)-pyrazola-8(1,3)-bicyclo[1.1.1]pentana-1(1,3)-cyclopentanacycloundecaphan-10-one]
IC50 (CCNE1-normal SKOV3 cells): 50 to 250 nM | IC50 [1]: 2 to 10 nM | IC50 (CDK9-CYCLIN T1; Table 17): 10 to 50 nM | CDK2 Fold selectivity, CDK9 (CDK9-CYCLIN T1; CDK2 versus CDK9, Table 18): D (D, >20 and ≤50) | IC50 (CDK2-CYCLIN E1; Table 17): ≤ 10 nM | IC50 (CDK6-CYCLIN D3; Table 17): 100 to 500 nM | CDK2 Fold selectivity, CDK6 (CDK6-CYCLIN D3; CDK2 versus CDK6, Table 18): C (C, >50 and ≤100) | IC50 (CDK1-CYCLIN B; Table 17): 10 to 50 nM | CDK2 Fold selectivity, CDK1 (CDK1-CYCLIN B; CDK2 versus CDK1, Table 18): E (E, <20) | IC50 [2]: 10 to 50 nM | IC50 (CDK4-CYCLIN D1; Table 17): 100 to 500 nM | CDK2 Fold selectivity, CDK4 (CDK4-CYCLIN D1; CDK2 versus CDK4, Table 18): C (C, >50 and ≤100)

C[C@H]1CC23CC(C2)(C3)NC(=O)O[C@@H]2CC[C@@H](C2)c2cc([nH]n2)Nc2ccnc(c2)O1 [Compound 102, (1^1S,1^3R,6S,Z)-6-methyl-2^1H-5,11-dioxa-3,9-diaza-4(4,2)-pyridina-2(3,5)-pyrazola-8(1,3)-bicyclo[1.1.1]pentana-1(1,3)-cyclopentanacycloundecaphan-10-one]
IC50 (CCNE1-normal SKOV3 cells): 50 to 250 nM | IC50 [1]: ≤ 2 nM | IC50 (CDK9-CYCLIN T1; Table 17): 10 to 50 nM | CDK2 Fold selectivity, CDK9 (CDK9-CYCLIN T1; CDK2 versus CDK9, Table 18): E (E, <20) | IC50 (CDK2-CYCLIN E1; Table 17): ≤ 10 nM | IC50 (CDK6-CYCLIN D3; Table 17): 100 to 500 nM | CDK2 Fold selectivity, CDK6 (CDK6-CYCLIN D3; CDK2 versus CDK6, Table 18): C (C, >50 and ≤100) | IC50 (CDK1-CYCLIN B; Table 17): ≤ 10 nM | CDK2 Fold selectivity, CDK1 (CDK1-CYCLIN B; CDK2 versus CDK1, Table 18): E (E, <20) | IC50 [2]: 2 to 10 nM | IC50 (CDK4-CYCLIN D1; Table 17): 100 to 500 nM | CDK2 Fold selectivity, CDK4 (CDK4-CYCLIN D1; CDK2 versus CDK4, Table 18): C (C, >50 and ≤100)

O=C1NCCCCOc2cccc(c2)Nc2cc([nH]n2)[C@H]2CC[C@H](C2)O1 [Compound 105, (1^1S,1^3R,Z)-2^1H-5,12-dioxa-3,10-diaza-2(5,3)-pyrazola-4(1,3)-benzena-1(1,3)-cyclopentanacyclododecaphan-11-one]
IC50 (CCNE1-normal SKOV3 cells): > 1250 nM | IC50 [1]: 10 to 50 nM | IC50 (CDK9-CYCLIN T1; Table 7): > 500 nM | CDK2 Fold Sensitivity, CDK9 (CDK9-CYCLIN T1; CDK2 versus CDK9, Table 8): B (B, >100 and ≤500) | IC50 (CDK2-CYCLIN E1; Table 7): ≤ 10 nM | IC50 (CDK6-CYCLIN D3; Table 7): 100 to 500 nM | CDK2 Fold Sensitivity, CDK6 (CDK6-CYCLIN D3; CDK2 versus CDK6, Table 8): C (C, >50 and ≤100) | IC50 (CDK1-CYCLIN B; Table 7): 100 to 500 nM | CDK2 fold selectivity over CDK1 (CDK1-CYCLIN B; CDK2 versus CDK1, Table 8): C (C, >50 and ≤100) | IC50 [2]: 50 to 250 nM | IC50 (CDK4-CYCLIN D1; Table 7): 100 to 500 nM | CDK2 Fold Sensitivity, CDK4 (CDK4-CYCLIN D1; CDK2 versus CDK4, Table 8): D (D, >20 and ≤50)

O=C1NC23CC(C/C=C/c4cncc(c4)Nc4cc(n[nH]4)[C@H]4CC[C@H](C4)O1)(C2)C3 [Compound 106, (1^1S,1^3R,2^4Z,5E)-2^1H-11-oxa-3,9-diaza-4(3,5)-pyridina-2(3,5)-pyrazola-8(1,3)-bicyclo[1.1.1]pentana-1(1,3)-cyclopentanacycloundecaphan-5-en-10-one]
IC50 (CCNE1-normal SKOV3 cells): 10 to 50 nM | IC50 [1]: ≤ 2 nM | IC50 (CDK9-CYCLIN T1; Table 15): ≤ 10 nM | CDK2 Fold selectivity, CDK9 (CDK9-CYCLIN T1; CDK2 versus CDK9, Table 16): E (E, <20) | IC50 (CDK2-CYCLIN E1; Table 15): ≤ 10 nM | IC50 (CDK6-CYCLIN D3; Table 15): 10 to 50 nM | CDK2 Fold selectivity, CDK6 (CDK6-CYCLIN D3; CDK2 versus CDK6, Table 16): E (E, <20) | IC50 (CDK1-CYCLIN B; Table 15): ≤ 10 nM | CDK2 Fold selectivity, CDK1 (CDK1-CYCLIN B; CDK2 versus CDK1, Table 16): E (E, <20) | IC50 [2]: ≤ 2 nM | IC50 (CDK4-CYCLIN D1; Table 15): 10 to 50 nM | CDK2 Fold selectivity, CDK4 (CDK4-CYCLIN D1; CDK2 versus CDK4, Table 16): E (E, <20)

O=C1NC23CC(C/C=C/c4cc(ccn4)Nc4cc(n[nH]4)[C@H]4CC[C@H](C4)O1)(C2)C3 [Compound 107, (11S,13R,24Z,5E)-21H-11-oxa-3,9-diaza-4(4,2)-pyridina-2(3,5)-pyrazola-8(1,3)-bicyclo[1.1.1]pentana-1(1,3)-cyclopentanacycloundecaphan-5-en-10-one]
IC50 (CCNE1-normal SKOV3 cells): 10 to 50 nM | IC50 [1]: ≤ 2 nM | IC50 (CDK9-CYCLIN T1; Table 17): ≤ 10 nM | CDK2 Fold selectivity, CDK9 (CDK9-CYCLIN T1; CDK2 versus CDK9, Table 18): E (E, <20) | IC50 (CDK2-CYCLIN E1; Table 17): ≤ 10 nM | IC50 (CDK6-CYCLIN D3; Table 17): 10 to 50 nM | CDK2 Fold selectivity, CDK6 (CDK6-CYCLIN D3; CDK2 versus CDK6, Table 18): E (E, <20) | IC50 (CDK1-CYCLIN B; Table 17): ≤ 10 nM | CDK2 Fold selectivity, CDK1 (CDK1-CYCLIN B; CDK2 versus CDK1, Table 18): E (E, <20) | IC50 [2]: ≤ 2 nM | IC50 (CDK4-CYCLIN D1; Table 17): 10 to 50 nM | CDK2 Fold selectivity, CDK4 (CDK4-CYCLIN D1; CDK2 versus CDK4, Table 18): E (E, <20)
